From ChEMBL document CHEMBL1129083, “The synthesis of 5-azido-UTP and UDP-pyridoxal and their effect on the carbamoyl-phosphate synthetase (CPS II) in the mammalian multienzyme polypeptide CAD” (Bioorg Med Chem Lett, 1996)

Key:
[1] = molecular target: Multifunctional protein CAD (Homo sapiens) (UniProt P27708); assay: Compound was evaluated for its effect on the activity of mammalian Carbamoyl-phosphate synthetase in the multienzyme polypeptide CAD at a concentration of 0.4mM
[2] = molecular target: Multifunctional protein CAD (Homo sapiens) (UniProt P27708); assay: Compound was evaluated for its effect on the activity of mammalian Carbamoyl-phosphate synthetase in the multienzyme polypeptide CAD at a concentration of 1.2mM
[3] = molecular target: Multifunctional protein CAD (Homo sapiens) (UniProt P27708); assay: Compound was evaluated for its effect on the activity of mammalian Carbamoyl-phosphate synthetase in the multienzyme polypeptide CAD at a concentration of 1.6mM
[4] = molecular target: Multifunctional protein CAD (Homo sapiens) (UniProt P27708); assay: Compound was evaluated for its effect on the activity of mammalian Carbamoyl-phosphate synthetase in the multienzyme polypeptide CAD at a concentration of 4mM
[5] = molecular target: Multifunctional protein CAD (Homo sapiens) (UniProt P27708); assay: Compound was evaluated for its effect on the activity of mammalian Carbamoyl-phosphate synthetase in the multienzyme polypeptide CAD at a concentration of 1.2 mM

Multifunctional protein CAD (Homo sapiens), sequence (P27708 whole entry): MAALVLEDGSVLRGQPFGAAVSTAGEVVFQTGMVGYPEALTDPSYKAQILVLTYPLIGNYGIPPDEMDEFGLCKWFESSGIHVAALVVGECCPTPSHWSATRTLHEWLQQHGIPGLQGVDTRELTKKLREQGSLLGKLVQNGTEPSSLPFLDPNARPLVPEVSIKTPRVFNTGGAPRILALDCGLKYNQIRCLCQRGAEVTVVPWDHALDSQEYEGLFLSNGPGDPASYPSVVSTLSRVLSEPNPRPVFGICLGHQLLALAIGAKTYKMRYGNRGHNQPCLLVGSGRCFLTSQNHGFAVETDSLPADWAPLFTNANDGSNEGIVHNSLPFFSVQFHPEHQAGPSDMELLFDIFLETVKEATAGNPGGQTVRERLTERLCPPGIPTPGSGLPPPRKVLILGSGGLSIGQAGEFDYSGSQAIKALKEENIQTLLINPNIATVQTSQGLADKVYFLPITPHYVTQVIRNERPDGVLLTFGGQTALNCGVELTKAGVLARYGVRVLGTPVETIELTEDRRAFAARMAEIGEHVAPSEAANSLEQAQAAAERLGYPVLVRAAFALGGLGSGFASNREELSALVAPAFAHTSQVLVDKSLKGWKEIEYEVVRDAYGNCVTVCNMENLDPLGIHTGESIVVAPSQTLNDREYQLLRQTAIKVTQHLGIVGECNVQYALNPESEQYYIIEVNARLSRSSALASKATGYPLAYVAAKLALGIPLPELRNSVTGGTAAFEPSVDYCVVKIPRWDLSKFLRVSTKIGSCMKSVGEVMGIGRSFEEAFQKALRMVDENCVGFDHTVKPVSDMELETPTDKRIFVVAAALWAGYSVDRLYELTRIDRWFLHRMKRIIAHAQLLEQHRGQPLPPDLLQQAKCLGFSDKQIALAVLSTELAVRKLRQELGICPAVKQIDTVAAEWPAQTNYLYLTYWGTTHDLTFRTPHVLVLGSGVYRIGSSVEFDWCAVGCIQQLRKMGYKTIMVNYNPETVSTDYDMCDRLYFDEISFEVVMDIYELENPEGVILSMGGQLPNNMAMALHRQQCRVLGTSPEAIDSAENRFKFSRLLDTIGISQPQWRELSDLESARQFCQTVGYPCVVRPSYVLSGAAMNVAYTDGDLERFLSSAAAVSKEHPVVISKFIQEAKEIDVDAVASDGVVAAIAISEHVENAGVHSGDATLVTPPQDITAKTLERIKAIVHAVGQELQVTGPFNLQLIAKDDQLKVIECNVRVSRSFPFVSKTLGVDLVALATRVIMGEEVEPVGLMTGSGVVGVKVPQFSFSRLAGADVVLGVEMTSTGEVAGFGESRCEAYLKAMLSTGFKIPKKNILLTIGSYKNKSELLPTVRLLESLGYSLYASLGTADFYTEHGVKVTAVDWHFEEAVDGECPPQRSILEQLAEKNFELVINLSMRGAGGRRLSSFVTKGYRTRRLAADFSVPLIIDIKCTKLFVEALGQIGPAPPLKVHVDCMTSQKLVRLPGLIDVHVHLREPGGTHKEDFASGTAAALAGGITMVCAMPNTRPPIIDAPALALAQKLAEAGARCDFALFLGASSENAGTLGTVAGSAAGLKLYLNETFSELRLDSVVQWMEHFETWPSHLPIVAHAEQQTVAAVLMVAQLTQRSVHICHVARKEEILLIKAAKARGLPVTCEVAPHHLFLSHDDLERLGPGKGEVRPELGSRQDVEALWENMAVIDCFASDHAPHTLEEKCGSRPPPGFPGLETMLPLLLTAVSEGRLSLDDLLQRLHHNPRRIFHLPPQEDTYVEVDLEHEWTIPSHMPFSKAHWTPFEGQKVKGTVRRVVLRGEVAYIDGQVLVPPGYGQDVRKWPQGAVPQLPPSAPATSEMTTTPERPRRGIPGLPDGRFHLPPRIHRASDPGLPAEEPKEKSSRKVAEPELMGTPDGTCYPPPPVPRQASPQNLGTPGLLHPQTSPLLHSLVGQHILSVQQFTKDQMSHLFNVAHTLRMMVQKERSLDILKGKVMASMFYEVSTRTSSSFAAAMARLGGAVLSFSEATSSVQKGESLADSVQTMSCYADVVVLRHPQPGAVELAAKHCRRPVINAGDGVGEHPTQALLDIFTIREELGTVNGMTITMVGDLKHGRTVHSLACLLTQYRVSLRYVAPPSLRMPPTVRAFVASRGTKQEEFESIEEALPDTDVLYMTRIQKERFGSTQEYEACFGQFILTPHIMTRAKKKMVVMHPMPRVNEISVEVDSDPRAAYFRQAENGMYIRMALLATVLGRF

Row | SMILES | Activity [1] | Activity [2] | further results
1 | O=P(O)(O)OC[C@H]1OC(OP(=O)(O)OP(=O)(O)O)[C@H](O)[C@@H]1O (stereo not given in full) | 320% | – | –
2 | Cc1ncc(COP(=O)(O)OP(=O)(O)OC[C@H]2OC(n3ccc(=O)[nH]c3=O)[C@H](O)[C@@H]2O)c(C=O)c1O (stereo not given in full) | 120% | – | –
3 | Cc1ncc(CO)c(C=O)c1O | – | 73% | –
4 | O=c1ccn([C@@H]2O[C@H](COP(=O)(O)OP(=O)(O)O)[C@@H](O)[C@H]2O)c(=O)[nH]1 | – | 54% | –
5 | Cc1ncc(COP(=O)(O)O)c(C=O)c1O | 170% | – | –
6 | O=P(O)(O)OC[C@H]1O[C@H](O)C(O)C1O (single isomer, unassigned) | – | – | Activity [3]: 100%
7 | Nc1ncnc2c1ncn2[C@@H]1O[C@H](COP(=O)(O)OP(=O)(O)OP(=O)(O)O)[C@@H](O)[C@H]1O | – | – | Activity [4]: 100%
8 | O=c1ccn([C@@H]2O[C@H](COP(=O)(O)OP(=O)(O)OP(=O)(O)O)[C@@H](O)[C@H]2O)c(=O)[nH]1 | – | 18% | –
9 | [N-]=[N+]=Nc1cn([C@@H]2O[C@H](COP(=O)(O)OP(=O)(O)OP(=O)(O)O)[C@@H](O)[C@H]2O)c(=O)[nH]c1=O | – | – | Activity [5]: 48%
10 | O=c1ccn([C@@H]2O[C@H](CO)C(O)C2O)c(=O)[nH]1 (single isomer, unassigned) | – | – | Activity [3]: 100%
